Data published in publication PMC10033409, “Autoregulation of GPCR signalling through the third intracellular loop” (Nature, 2023).
Where a name gives a salt, the structure may show the parent alone.

Columns and labels:
PTH1R = molecular target: T1, PTH1R (Homo sapiens, UniProt Q03431); assay: cAMP accumulation, PTH1R; assay type: cell-based; conditions: PTH1R Wild-Type
T1 construct: expressed in transfected cells; host or cells: HEK 293T
T1 sequence (Q03431 27-593): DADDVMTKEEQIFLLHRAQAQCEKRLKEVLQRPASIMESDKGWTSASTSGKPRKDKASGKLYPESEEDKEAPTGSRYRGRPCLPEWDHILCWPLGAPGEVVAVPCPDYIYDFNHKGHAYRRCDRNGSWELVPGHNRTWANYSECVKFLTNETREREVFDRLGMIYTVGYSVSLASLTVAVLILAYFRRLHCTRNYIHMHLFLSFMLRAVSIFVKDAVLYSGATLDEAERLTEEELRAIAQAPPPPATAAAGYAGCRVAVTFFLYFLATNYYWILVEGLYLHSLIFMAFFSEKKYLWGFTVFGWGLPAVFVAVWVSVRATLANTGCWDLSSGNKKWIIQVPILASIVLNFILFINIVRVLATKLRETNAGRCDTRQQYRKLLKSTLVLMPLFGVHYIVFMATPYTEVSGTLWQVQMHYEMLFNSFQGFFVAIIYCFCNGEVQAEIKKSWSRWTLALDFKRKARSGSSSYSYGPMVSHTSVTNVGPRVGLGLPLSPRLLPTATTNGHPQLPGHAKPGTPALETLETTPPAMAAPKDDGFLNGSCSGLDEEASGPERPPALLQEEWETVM
Procedure: One millilitre of medium was removed from each well containing transfected cells. The remaining volume was used to gently shear and resuspend the cells by pipetting. The cell mixture was centrifuged (3 min, 300g) and media was removed using a vacuum manifold. […] The cells were washed once by repeating this procedure.
For all other second messenger assays, expression level and cell density of each condition was estimated through fluorescence. Fluorescence spectra for mCerulean (Horiba Fluoromax 4, excitation 430 nm, emission scan 450–600 nm, bandpass 4 nm) and mCitrine (Horiba Fluoromax 4, excitation 490 nm, emission scan 500–600 nm, bandpass 4 nm) were acquired for each condition. Cells were resuspended at 350,000 ± 30,000 fluorescence counts at a wavelength representing optical density of the sample (excitation 430 nm/emission 450 nm), corresponding with 2 × 10^6 ± 5 × 10^5 cells per m^l. This was confirmed by counting the cells on a haemocytometer (Countess II).
Resuspended cells were added 1:1 with a 2× concentration of ligand (10 µl final) into an opaque 384-well flat bottom plate (Greiner Bio-One). […] For dose–response curves, a saturating concentration of forskolin (10 µM) was included as a control to measure cAMP stimulation independent of the transfected receptor. […] For all other experiments, plates were incubated at room temperature for 10 min. […] Reactions were quenched and processed for the cAMP-Glo Assay (Promega) following the manufacturer’s instructions. Luminescence was measured on a Tecan Spark plate reader (500 ms integration, one measurement per well).

[1] = system: endogenous adrenergic receptors in HEK 293T cells; assay: cAMP accumulation, untransfected cells; assay type: cell-based, human; conditions: untransfected HEK 293T cells; Isoproterenol 10 µM
Procedure: Resuspended cells were added 1:1 with a 2× concentration of ligand (10 µl final) into an opaque 384-well flat bottom plate (Greiner Bio-One). […]. for FSK inhibition assays with β-ARs, 100 µM metoprolol was used. For dose–response curves, a saturating concentration of forskolin (10 µM) was included as a control to measure cAMP stimulation independent of the transfected receptor. For experiments comparing multiple receptors measuring non-cognate or secondary Gs signalling (Fig. 4e, Extended Data Fig. 8i–k), 500 µM 3-isobutyl-1-methylxanthine (IBMX) was used to inhibit phosphodiesterase activity. For all other experiments, no IBMX was used to minimize cAMP accumulation from endogenous receptors (Extended Data Fig. 6a). For experiments in Fig. 2g and Extended Data Fig. 6b,e, plates were incubated at 37 °C for 10 min to stimulate cAMP production. For all other experiments, plates were incubated at room temperature for 10 min. […] Reactions were quenched and processed for the cAMP-Glo Assay (Promega) following the manufacturer’s instructions. Luminescence was measured on a Tecan Spark plate reader (500 ms integration, one measurement per well). […]

Untransfected = assay: Radiolabelled antagonist-binding assay (saturation), untransfected control sample; conditions: fitted curve
Excerpt: Supplement 41586_2023_5789_MOESM3_ESM.xlsx, sheet "Extended Data Figure 3J"

CC(C)NCC(O)c1ccc(O)c(O)c1 (stereo not drawn) [Isoproterenol, isoproterenol (+)-bitartrate salt]
cAMP (Isoproterenol/Forskolin Maximum), Average (PTH1R; [Isoproterenol] log(M) -5): 0.55
cAMP (Isoproterenol/Forskolin Maximum), Average (PTH1R; [Isoproterenol] log(M) -6): 0.57
cAMP (Isoproterenol/Forskolin Maximum), Average (PTH1R; [Isoproterenol] log(M) -7): 0.59
cAMP (Isoproterenol/Forskolin Maximum), Average (PTH1R; [Isoproterenol] log(M) -8): 0.43
cAMP (Isoproterenol/Forskolin Maximum), Average (PTH1R; [Isoproterenol] log(M) -8.30103): 0.44
cAMP (Isoproterenol/Forskolin Maximum), Average (PTH1R; [Isoproterenol] log(M) -9): 0.10
cAMP (Isoproterenol/Forskolin Maximum), Average (PTH1R; [Isoproterenol] log(M) -9.30103): 0.00476
cAMP (Isoproterenol/Forskolin Maximum), Average (PTH1R; [Isoproterenol] log(M) -10): -0.0216
cAMP (Isoproterenol/Forskolin Maximum), Average (PTH1R; [Isoproterenol] log(M) -11): -0.00704
cAMP (Isoproterenol/Forskolin Maximum), Average (PTH1R; [Isoproterenol] log(M) -12): -0.08
cAMP generated from endogenous receptors [1]: only detected in the presence of 500 µM IBMX

[^125I](±)-cyanopindolol
fmol 125I-Cyanopindolol/mg sample, Fit (Untransfected; 125I-Cyanopindolol 0.0198458 nM (Average)): 7.834e-5 fmol/mg sample
fmol 125I-Cyanopindolol/mg sample, Fit (Untransfected; 125I-Cyanopindolol 0.0420593 nM (Average)): 0.0001875 fmol/mg sample
fmol 125I-Cyanopindolol/mg sample, Fit (Untransfected; 125I-Cyanopindolol 0.234223 nM (Average)): 0.05859 fmol/mg sample
fmol 125I-Cyanopindolol/mg sample, Fit (Untransfected; 125I-Cyanopindolol 0.468204 nM (Average)): 1.044 fmol/mg sample
fmol 125I-Cyanopindolol/mg sample, Fit (Untransfected; 125I-Cyanopindolol 0.871756 nM (Average)): 13.7262 fmol/mg sample
fmol 125I-Cyanopindolol/mg sample, Fit (Untransfected; 125I-Cyanopindolol 1.70257 nM (Average)): 172.555 fmol/mg sample
